The values below come from patent US20140005163A1 (NOVARTIS AG, priority 2010, published 2014).

One test deals with T1, PI3K alpha (Homo sapiens, UniProt P42336).
T1 construct: p85(iSH2) fusion partner (see partner chain) (N); His tag (C); made in house; host or cells: baculovirus; Tn5 (Trichoplusia ni) or TiniPro insect cells
As to the kind of experiment: PI3K alpha kinase assay (Kinase-Glo luminescence). The test is classed as biochemical. The method, boiled down: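 Read-out: Kinase-Glo luminescence of ATP left after 60 min at room temperature. Conditions: 10 nM PI3Kα (EMV B1075), 1 μM ATP, 10 μg/mL PI substrate, Tris pH 7.5 buffer with MgCl2, NaCl, CHAPS and DTT. IC50s fitted with a four-parameter logistic model.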

Test [1] deals with PKB Ser473 phosphorylation in Rat1-myr-HA-p110 alpha cells. As to the kind of experiment: Reverse protein array assay, PKB Ser473 phosphorylation in Rat1-myr-p110 alpha cells. Particulars: 0.5 h, pAkt Ser473, 30 minutes compound incubation, read-out: p-PKB IC50. The test is classed as cell-based. The method, boiled down: (§1)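 Compound exposure lasted 30 min in Rat1 cells bearing membrane-targeted HA-p110 isoforms, using 8 serial concentrations. Arrayed lysates, each spotted at four dilutions, gave relative fluorescence signals for phospho-Ser473 PKB.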

Test [2] has as its system PKB Ser473 phosphorylation in Rat1-myr-HA-p110 delta cells. As to the kind of experiment: Reverse protein array assay, PKB Ser473 phosphorylation in Rat1-myr-p110 delta cells. The test is classed as cell-based. As to conditions: read-out: p-PKB IC50. The method, boiled down: as §1
For test [3], the system named is S6 Ribosomal Protein phosphorylation Ser235/236 in TSC1 null mouse embryo fibroblast (MEF) cells. Briefly: Reverse protein array assay, S6 Ribosomal Protein phosphorylation Ser235/236 in TSC1 null MEF cells. The format is cell-based. As to conditions: 1 h, pS6 ribosomal protein Ser235/236, 60 minutes incubation, read-out: p-S6 IC50. The method, boiled down:
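TSC1−/− MEFs, seeded and held ≥20 h at 37 °C/5% CO2, were exposed to 8-step serial compound dilutions (0.02% DMSO final; DMSO vehicle control) for 60 min at 37 °C. Cells were then lysed on ice for 10 min and lysates spotted onto reverse protein array chips.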

Where only a bound is given, the exact number is not on record here.

T1 sequence (P42336 with tags, fused parts or gaps limits assumed): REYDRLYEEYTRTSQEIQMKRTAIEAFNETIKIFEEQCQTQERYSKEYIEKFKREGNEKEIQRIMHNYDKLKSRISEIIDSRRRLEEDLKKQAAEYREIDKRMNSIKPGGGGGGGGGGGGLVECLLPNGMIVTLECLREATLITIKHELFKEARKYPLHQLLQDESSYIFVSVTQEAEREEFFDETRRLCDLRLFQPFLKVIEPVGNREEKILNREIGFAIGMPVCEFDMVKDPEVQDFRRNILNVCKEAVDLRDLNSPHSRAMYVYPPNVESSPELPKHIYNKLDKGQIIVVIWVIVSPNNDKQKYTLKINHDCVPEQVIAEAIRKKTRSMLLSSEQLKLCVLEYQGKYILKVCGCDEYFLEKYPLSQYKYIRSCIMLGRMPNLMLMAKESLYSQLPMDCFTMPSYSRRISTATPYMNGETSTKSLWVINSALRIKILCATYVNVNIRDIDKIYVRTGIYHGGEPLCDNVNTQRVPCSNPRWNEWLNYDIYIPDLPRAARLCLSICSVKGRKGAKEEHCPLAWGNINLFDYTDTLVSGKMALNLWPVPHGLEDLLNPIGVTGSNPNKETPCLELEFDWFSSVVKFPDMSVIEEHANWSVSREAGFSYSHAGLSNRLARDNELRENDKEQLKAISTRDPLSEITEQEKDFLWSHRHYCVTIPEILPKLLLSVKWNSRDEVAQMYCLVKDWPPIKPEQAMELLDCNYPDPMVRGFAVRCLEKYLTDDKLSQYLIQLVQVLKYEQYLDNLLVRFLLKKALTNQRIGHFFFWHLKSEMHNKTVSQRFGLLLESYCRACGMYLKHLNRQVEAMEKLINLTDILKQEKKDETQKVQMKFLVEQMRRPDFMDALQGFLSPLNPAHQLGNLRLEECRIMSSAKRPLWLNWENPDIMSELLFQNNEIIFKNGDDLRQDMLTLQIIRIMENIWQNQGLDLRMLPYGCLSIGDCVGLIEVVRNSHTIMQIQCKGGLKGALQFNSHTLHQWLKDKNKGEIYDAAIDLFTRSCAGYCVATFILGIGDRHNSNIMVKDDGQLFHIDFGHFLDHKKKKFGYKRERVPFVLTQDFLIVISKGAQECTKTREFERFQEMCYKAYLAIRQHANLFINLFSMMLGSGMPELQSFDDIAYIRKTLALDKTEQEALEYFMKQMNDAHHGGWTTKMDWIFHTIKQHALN

Consider `Cc1nn(C)cc1-n1c(=O)n(C)c2cnc3ccc(-c4cncc(C5(C#N)CCC5)c4)cc3c21` [Example 221.1, 1-{5-[1-(1,3-Dimethyl-1H-pyrazol-4-yl)-3-methyl-2-oxo-2,3-dihydro-1H-imidazo[4,5-c]quinolin-8-yl]-pyridin-3-yl}-cyclobutanecarbonitrile], for which the half-maximal inhibitory concentration (IC50) on PI3K alpha worked out at 14 nM; in test [1], 14 nM; in test [2] it was 41 nM; in test [3], 1 nM.

Take `Cc1nn(C(C)C)cc1-n1c(=O)n(C)c2cnc3ccc(-c4cncc(N)c4)cc3c21` [Example 45.3, 8-(5-Amino-pyridin-3-yl)-1-(1-isopropyl-3-methyl-1H-pyrazol-4-yl)-3-methyl-1,3-dihydro-imidazo[4,5-c]quinolin-2-one]: the 50% inhibitory concentration (IC50) came to 76 nM on PI3K alpha, 14 nM in test [1], 213 nM in test [2] and 46 nM in test [3].

For the molecule `CCc1ncc(-c2ccc3ncc4c(c3c2)n(-c2cn(C)nc2C)c(=O)n4C)cc1O` [Example 188, 1-(1,3-Dimethyl-1H-pyrazol-4-yl)-8-(6-ethyl-5-hydroxy-pyridin-3-yl)-3-methyl-1,3-dihydro-imidazo[4,5-c]quinolin-2-one], the IC50 is 9 nM on PI3K alpha, 8 nM in test [1], 41 nM in test [2] and 8.15 nM in test [3].

With `CNc1cc(-c2ccc3ncc4c(c3c2)n(-c2cn(C)nc2Cl)c(=O)n4C)cnc1CO` [Example 158.3, 1-(3-Chloro-1-methyl-1H-pyrazol-4-yl)-8-(6-hydroxymethyl-5-methylamino-pyridin-3-yl)-3-methyl-1,3-dihydro-imidazo[4,5-c]quinolin-2-one], the half-maximal inhibitory concentration (IC50) on PI3K alpha is 7 nM; in test [1] it was under 5 nM; in test [2] it was under 5 nM; in test [3], under 0.5 nM.

On to `Cc1nn(C)cc1-n1c(=O)n(C)c2cnc3ccc(-c4cncc(N5CCOCC5)c4)cc3c21` [Example 175.1, 1-(1,3-Dimethyl-1H-pyrazol-4-yl)-3-methyl-8-(5-morpholin-4-yl-pyridin-3-yl)-1,3-dihydro-imidazo[4,5-c]quinolin-2-one], for which the half-maximal inhibitory concentration (IC50) was determined as 66 nM at PI3K alpha, 17 nM in test [1], 90 nM in test [2] and 1 nM in test [3].

On to `CCOc1ccc(-c2ccc3ncc4c(c3c2)n(-c2c(C)nn(C)c2C)c(=O)n4C)cc1OCC` [Example 27.2, 8-(3,4-Diethoxy-phenyl)-3-methyl-1-(1,3,5-trimethyl-1H-pyrazol-4-yl)-1,3-dihydro-imidazo[4,5-c]quinolin-2-one], for which the IC50 turned out to be 48 nM at PI3K alpha, 14 nM in test [1], 508 nM in test [2] and 234 nM in test [3].

Take `COc1ccc(-c2ccc3ncc4c(c3c2)n(-c2cn(C(C)C)nc2C)c(=O)n4C)cc1OC` [Example 1.5, 8-(3,4-Dimethoxy-phenyl)-1-(1-isopropyl-3-methyl-1H-pyrazol-4-yl)-3-methyl-1,3-dihydro-imidazo[4,5-c]quinolin-2-one]: the 50% inhibitory concentration (IC50) at PI3K alpha was 10 nM; in test [1], 16 nM; in test [2], 50 nM; in test [3], under 5 nM.

In the case of `COc1ncc(-c2ccc3ncc4c(c3c2)n(-c2cn(C)nc2Cl)c(=O)n4C)cc1N` [Example 89, 8-(5-Amino-6-methoxy-pyridin-3-yl)-1-(3-chloro-1-methyl-1H-pyrazol-4-yl)-3-methyl-1,3-dihydro-imidazo[4,5-c]quinolin-2-one], the IC50 was 18 nM at PI3K alpha, under 5 nM in test [1], 7 nM in test [2] and under 0.5 nM in test [3].

Consider `Cc1nn(C)cc1-n1c(=O)n(C)c2cnc3ccc(-c4cccc(S(=O)(=O)N5CCCC5)c4)cc3c21` [Example 44, 1-(1,3-Dimethyl-1H-pyrazol-4-yl)-3-methyl-8-[3-(pyrrolidine-1-sulfonyl)-phenyl]-1,3-dihydro-imidazo[4,5-c]quinolin-2-one], for which the concentration for half-maximal inhibition (IC50) was 70 nM at PI3K alpha, 41 nM in test [1], 134 nM in test [2] and 80 nM in test [3].

Take `CCc1ncc(-c2ccc3ncc4c(c3c2)n(-c2cn(C)nc2C)c(=O)n4C)cc1N` [Example 208, 8-(5-Amino-6-ethyl-pyridin-3-yl)-1-(1,3-dimethyl-1H-pyrazol-4-yl)-3-methyl-1,3-dihydro-imidazo[4,5-c]quinolin-2-one]: the half-inhibitory concentration (IC50) was determined as 15 nM on PI3K alpha, 20 nM in test [1], 83 nM in test [2] and 5 nM in test [3].

With `Cc1nn(C)cc1-n1c(=O)n(C)c2cnc3ccc(-c4ccc(C(N)=O)nc4)cc3c21` [Example 14, 5-[1-(1,3-Dimethyl-1H-pyrazol-4-yl)-3-methyl-2-oxo-2,3-dihydro-1H-imidazo[4,5-c]quinolin-8-yl]-pyridine-2-carboxylic acid amide], the IC50 came out at 18 nM at PI3K alpha, 26 nM in test [1], 74 nM in test [2] and 123 nM in test [3].

As for `CNc1cc(-c2ccc3ncc4c(c3c2)n(-c2cn(C(C)C)nc2C)c(=O)n4C)cnc1CO` [Example 158.2, 8-(6-Hydroxymethyl-5-methylamino-pyridin-3-yl)-1-(1-isopropyl-3-methyl-1H-pyrazol-4-yl)-3-methyl-1,3-dihydro-imidazo[4,5-c]quinolin-2-one], the IC50 on PI3K alpha was found to be 44 nM; in test [1], 7 nM; in test [2] it was 15 nM; in test [3], 1 nM.

Turning to `Cc1nn(C(C)C)cc1-n1c(=O)n(C)c2cnc3ccc(-c4cnc(N)c(F)c4)cc3c21` [Example 142.3, 8-(6-Amino-5-fluoro-pyridin-3-yl)-1-(1-isopropyl-3-methyl-1H-pyrazol-4-yl)-3-methyl-1,3-dihydro-imidazo[4,5-c]quinolin-2-one], the half-maximal inhibitory concentration (IC50) at PI3K alpha was determined as 25 nM; in test [1] it was 10 nM; in test [2], 23 nM; in test [3], 1 nM.

For `CNC(=O)c1ccc(-c2ccc3ncc4c(c3c2)n(-c2c(C)nn(C)c2C)c(=O)n4C)cn1` [Example 15.2, 5-[3-Methyl-2-oxo-1-(1,3,5-trimethyl-1H-pyrazo1-4-yl)-2,3-dihydro-1H-imidazo[4,5-c]quinolin-8-yl]-pyridine-2-carboxylic acid methylamide], the IC50 on PI3K alpha amounted to 249 nM; in test [1], 352 nM.

With `Cc1nn(C)c(C)c1-n1c(=O)n(C)c2cnc3ccc(-c4cnc(N)c(CO)c4)cc3c21` [Example 169.2, 8-(6-Amino-5-hydroxymethyl-pyridin-3-yl)-3-methyl-1-(1,3,5-trimethyl-1H-pyrazol-4-yl)-1,3-dihydro-imidazo[4,5-c]quinolin-2-one], the IC50 on PI3K alpha came out at 34 nM; in test [1], 460 nM; in test [2] it was 869 nM.

Regarding `Cc1nn(C)cc1-n1c(=O)n(C)c2cnc3ccc(-c4ccnc(OC(C)C)c4)cc3c21` [Example 92, 1-(1,3-Dimethyl-1H-pyrazol-4-yl)-8-(2-isopropoxy-pyridin-4-yl)-3-methyl-1,3-dihydro-imidazo[4,5-c]quinolin-2-one], the concentration for half-maximal inhibition (IC50) came out at 104 nM at PI3K alpha, 244 nM in test [1] and 75 nM in test [3].

With `Cc1cc(-n2c(=O)n(C)c3cnc4ccc(-c5ccc(N(C)C)nc5)cc4c32)n(C)n1` [Example 4.6, 8-(6-Dimethylamino-pyridin-3-yl)-1-(2,5-dimethyl-2H-pyrazol-3-yl)-3-methyl-1,3-dihydro-imidazo[4,5-c]quinolin-2-one], the IC50 is 48 nM on PI3K alpha, 30 nM in test [1] and 205 nM in test [2].

As to `Cn1nccc1-n1c(=O)n(C)c2cnc3ccc(-c4ccc(NCCO)nc4)cc3c21` [Example 21.1, 8-[6-(2-Hydroxy-ethylamino)-pyridin-3-yl]-3-methyl-1-(2-methyl-2H-pyrazol-3-yl)-1,3-dihydro-imidazo[4,5-c]quinolin-2-one], the concentration for half-maximal inhibition (IC50) at PI3K alpha came out at 272 nM; in test [1], 191 nM; in test [2] it was 906 nM.

For the molecule `Cc1nn(C)c(C)c1-n1c(=O)n(C)c2cnc3ccc(-c4ccc(CO)nc4)cc3c21` [Example 16.4, 8-(6-Hydroxymethyl-pyridin-3-yl)-3-methyl-1-(1,3,5-trimethyl-1H-pyrazol-4-yl)-1,3-dihydro-imidazo[4,5-c]quinolin-2-one], the concentration for half-maximal inhibition (IC50) amounted to 184 nM at PI3K alpha, 234 nM in test [1] and 1510 nM in test [2].

In the case of `COc1ccc(-c2ccc3ncc4c(c3c2)n(-c2cc(C)nn2C)c(=O)n4C)cc1OC` [Example 1.4, 8-(3,4-Dimethoxy-phenyl)-1-(2,5-dimethyl-2H-pyrazol-3-yl)-3-methyl-1,3-dihydro-imidazo[4,5-c]quinolin-2-one], the results for the IC50 (at PI3K alpha; in test [1]; in test [2]) were 39 nM, 22 nM and 131 nM, respectively.

As for `COCc1ccc(-c2ccc3ncc4c(c3c2)n(-c2cn(C(C)C)nc2C)c(=O)n4C)cn1` [Example 105, 1-(1-Isopropyl-3-methyl-1H-pyrazol-4-yl)-8-(6-methoxymethyl-pyridin-3-yl)-3-methyl-1,3-dihydro-imidazo[4,5-c]quinolin-2-one], the IC50 on PI3K alpha is 110 nM; in test [1], 77 nM; in test [2], 162 nM.
